Assays:
Assay type in all cases: biochemical
[1] = target: T1, full-length gelatinase B (FLGB) (Homo sapiens, UniProt P14780); test: inhibition of full-length gelatinase B hydrolysis of thiopeptolide
T1 construct: full-length gelatinase B (FLGB) hydrolysis of thiopeptolide
Text: (§1) The invention compounds have been evaluated in standard in vitro assays and shown to be potent inhibitors of several matrix metalloproteinase enzymes.
(§2) The compounds were additionally evaluated for their ability to inhibit full-length collagenase hydrolysis of thiopeptolide substrate (FLC) and full-length gelatinase B (FLGB) hydrolysis of thiopeptolide.

MMP-2 (Gelatinase A) = target: T2, MMP-2 (Gelatinase A) (Homo sapiens, UniProt P08253); test: inhibition of MMP-2 hydrolysis of thiopeptolide substrate; details: thiopeptolide substrate, pH 6.0, 22° C.; read-out: (IC50) MMP-2
T2 sequence (P08253 110-660): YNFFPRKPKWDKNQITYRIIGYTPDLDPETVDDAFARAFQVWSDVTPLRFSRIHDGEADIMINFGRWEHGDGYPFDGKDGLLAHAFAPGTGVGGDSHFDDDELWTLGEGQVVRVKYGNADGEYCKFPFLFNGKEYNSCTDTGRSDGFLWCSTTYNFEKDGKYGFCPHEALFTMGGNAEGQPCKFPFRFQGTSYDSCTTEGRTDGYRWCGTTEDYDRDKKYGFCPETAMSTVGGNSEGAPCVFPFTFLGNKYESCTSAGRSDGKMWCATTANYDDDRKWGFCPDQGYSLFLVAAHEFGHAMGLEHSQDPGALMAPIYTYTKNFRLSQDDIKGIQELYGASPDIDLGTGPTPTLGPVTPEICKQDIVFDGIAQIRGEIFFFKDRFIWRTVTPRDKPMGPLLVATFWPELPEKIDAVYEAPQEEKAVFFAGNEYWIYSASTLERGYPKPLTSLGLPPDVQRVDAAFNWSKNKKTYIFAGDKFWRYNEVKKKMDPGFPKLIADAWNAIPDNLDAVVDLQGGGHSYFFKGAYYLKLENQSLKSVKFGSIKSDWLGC

MMP-13 (Collagenase 3) = MMP-13 (Collagenase 3) (Homo sapiens, UniProt P45452); test: inhibition of MMP-13 hydrolysis of thiopeptolide substrate; details: thiopeptolide substrate, pH 6.0, 22° C.; read-out: (IC50) MMP-13
Text: as §1

MMP-3 (stromelysin) = MMP-3 (stromelysin) (Homo sapiens, UniProt P08254); test: inhibition of MMP-3 hydrolysis of thiopeptolide substrate; details: thiopeptolide substrate, pH 6.0, 22° C.; read-out: (IC50) MMP-3
Chain of MMP-3 (stromelysin) (P08254 100-477): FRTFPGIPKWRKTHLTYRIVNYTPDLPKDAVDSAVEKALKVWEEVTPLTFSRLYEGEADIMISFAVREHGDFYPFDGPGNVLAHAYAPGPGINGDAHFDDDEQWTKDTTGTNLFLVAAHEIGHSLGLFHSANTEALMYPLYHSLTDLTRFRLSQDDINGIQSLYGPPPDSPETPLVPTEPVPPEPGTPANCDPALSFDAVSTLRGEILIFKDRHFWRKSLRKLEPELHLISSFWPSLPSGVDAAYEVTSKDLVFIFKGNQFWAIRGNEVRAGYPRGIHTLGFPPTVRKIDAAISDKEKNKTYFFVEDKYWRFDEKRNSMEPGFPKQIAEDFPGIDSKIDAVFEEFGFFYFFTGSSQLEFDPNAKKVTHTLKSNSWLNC
Text: The assays measure the amount by which a test compound reduces the hydrolysis of a thiopeptolide substrate caused by a matrix metalloproteinase enzyme. Such assays are described in detail by Ye, et al., in Biochemistry, 1992;31(45):11231-11235).
Thiopeptolide substrates show virtually no decomposition or hydrolysis in the absence of a matrix metalloproteinase enzyme. A typical thiopeptolide substrate commonly utilized for assays is Ac-Pro-Leu-Gly-thioester-Len-Len-Gly-O Et. […] Assays are carried out with and without matrix metalloproteinase inhibitor compounds, and the amount of hydrolysis is compared for a determination of inhibitory activity of the test compounds.
In the table, MMP-1 refers to interstitial collagenase; MMP-2 refers to Gelatinase A; MMP-3 refers to stromelysin; MMP-7 refers to matrilysin; and MMP-13 refers to Collagenase 3.

[2] = target: T3, full-length collagenase (FLC) (Homo sapiens, UniProt P03956); test: inhibition of full-length collagenase hydrolysis of thiopeptolide substrate
T3 construct: full-length collagenase hydrolysis of thiopeptolide substrate (FLC)
T3 sequence (P03956 100-469): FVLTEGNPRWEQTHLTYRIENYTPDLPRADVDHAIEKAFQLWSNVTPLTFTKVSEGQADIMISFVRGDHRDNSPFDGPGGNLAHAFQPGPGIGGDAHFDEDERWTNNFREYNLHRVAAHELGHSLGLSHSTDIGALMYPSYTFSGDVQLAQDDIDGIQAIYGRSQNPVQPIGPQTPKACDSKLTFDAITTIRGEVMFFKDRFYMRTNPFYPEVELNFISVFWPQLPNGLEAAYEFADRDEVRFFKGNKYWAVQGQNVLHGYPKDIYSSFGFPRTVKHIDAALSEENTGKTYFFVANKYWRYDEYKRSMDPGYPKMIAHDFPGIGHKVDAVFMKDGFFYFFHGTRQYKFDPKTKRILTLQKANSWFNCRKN
Text: as §1, §2

[3] = target: T4, MMP-1 (interstitial collagenase) (Homo sapiens, UniProt P03956); test: inhibition of MMP-1 hydrolysis of thiopeptolide substrate; details: pH 6.0, 22° C.
T4 sequence (P03956 100-469): T3 sequence (P03956 100-469)
Text: as §1

T1 sequence (P14780 94-707): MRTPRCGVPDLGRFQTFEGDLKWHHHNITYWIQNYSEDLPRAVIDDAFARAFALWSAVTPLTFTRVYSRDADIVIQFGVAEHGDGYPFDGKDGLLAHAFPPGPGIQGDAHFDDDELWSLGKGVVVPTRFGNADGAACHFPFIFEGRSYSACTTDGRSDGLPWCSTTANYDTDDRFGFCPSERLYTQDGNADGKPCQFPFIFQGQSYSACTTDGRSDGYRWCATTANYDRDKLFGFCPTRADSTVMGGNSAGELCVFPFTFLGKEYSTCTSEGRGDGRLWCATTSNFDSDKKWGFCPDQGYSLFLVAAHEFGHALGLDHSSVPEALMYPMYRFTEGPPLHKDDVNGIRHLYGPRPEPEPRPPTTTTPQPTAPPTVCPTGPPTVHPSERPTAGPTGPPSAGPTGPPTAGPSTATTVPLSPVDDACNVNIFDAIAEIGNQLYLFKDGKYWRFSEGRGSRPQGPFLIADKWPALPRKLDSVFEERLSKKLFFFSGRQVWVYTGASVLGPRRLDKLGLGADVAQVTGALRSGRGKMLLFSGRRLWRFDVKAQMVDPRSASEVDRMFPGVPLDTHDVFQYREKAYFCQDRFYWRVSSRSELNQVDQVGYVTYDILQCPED

Row | SMILES | IC50 [1] | IC50 (MMP-2 (Gelatinase A)) | IC50 (MMP-13 (Collagenase 3)) | IC50 (MMP-3 (stromelysin)) | IC50 [2] | IC50 [3]
1 | O=C(C[C@H](NC(=O)C(F)(F)F)C(=O)O)c1ccc2oc3ccccc3c2c1 [Example 1, (S)-4-Dibenzofuran-2-yl-4-oxo-2-(2,2,2-trifluoroacetylamino)-butyric acid] | > 100 µM | 59 nM | 2.8 µM | 950 nM | > 100 µM | 
2 | Cc1ccc(S(=O)(=O)N[C@@H](CC(=O)c2ccc3oc4ccccc4c3c2)C(=O)O)cc1 [Example 14, (S) -4-Dibenzofuran-2-yl-4-oxo-2-(4-methylphenylsulfonylamino)-butyric acid] |  | 17 nM | 1.1 µM | 260 nM |  | 83 µM
3 | CC(Oc1ccccc1)C(=O)NC(CC(=O)c1ccc2oc3ccccc3c2c1)C(=O)O (stereo not shown) [Example 30, 4-Dibenzofuran-2-yl-4-oxo-2-(2-phenoxy-propionylamino)-butyric acid] |  | 35 nM | 2.9 µM | 100 nM |  | 45 µM
4 | CCCCOc1ccc(C(=O)NC(CC(=O)c2ccc3oc4ccccc4c3c2)C(=O)O)cc1 (stereo not shown) [Example 37, 2-(4-Butoxy-benzoylamino)-4-dibenzofuran-2-yl-4-oxo-butyric acid] |  | 800 nM | 58 µM | 5000 nM |  | 
5 | O=C(CC(NC(=O)C1CC1)C(=O)O)c1ccc2oc3ccccc3c2c1 (stereo not shown) [Example 38, 2-(Cyclopropanecarbonyl-amino)-4-dibenzofuran-2-yl-4-oxo-butyric acid] |  | 90 nM | 5.6 µM | 850 nM |  | 
6 | O=C(CC(NC(=O)c1ccc(Cl)cc1)C(=O)O)c1ccc2oc3ccccc3c2c1 (stereo not shown) [Example 39, 2-(4-Chloro-benzoylamino)-4-dibenzofuran-2-yl-4-oxo-butyric acid] |  | 150 nM | 12 µM | 1200 nM |  | 
7 | O=C(CC(NC(=O)c1ccco1)C(=O)O)c1ccc2oc3ccccc3c2c1 (stereo not shown) [Example 41, 4-Dibenzofuran-2-yl-2-[(furan-2-carbonyl)-amino]-4-oxo-butyric acid] |  | 140 nM | 12 µM | 1500 nM |  | 
8 | O=C(CC(NC(=O)c1ccc(Br)cc1)C(=O)O)c1ccc2oc3ccccc3c2c1 (stereo not shown) [Example 42, 2-(4-Bromo-benzoylamino)-4-dibenzofuran-2-yl-4-oxo-butyric acid] |  | 180 nM | 17 µM | 1300 nM |  | 
9 | O=C(CC(NC(=O)c1ccc(F)cc1)C(=O)O)c1ccc2oc3ccccc3c2c1 (stereo not shown) [Example 43, 4-Dibenzofuran-2-yl-2-(4-fluoro-benzoylamino)-4-oxo-butyric acid] |  | 70 nM | 7.1 µM | 660 nM |  | 
10 | O=C(CC(NC(=O)c1cnc2ccccc2n1)C(=O)O)c1ccc2oc3ccccc3c2c1 (stereo not shown) [Example 44, 4-Dibenzofuran-2-yl-4-oxo-2-[(quinoxaline-2-carbonyl)-amino]-butyric acid] |  | 310 nM | 27 µM | 3500 nM |  | 
11 | O=C(CC(NC(=O)c1ccccn1)C(=O)O)c1ccc2oc3ccccc3c2c1 (stereo not shown) [Example 45, 4-Dibenzofuran-2-yl-4-oxo-2-[(pyridine-2-carbonyl)-amino]-butyric acid] |  | 110 nM | 15 µM | 1000 nM |  | 
12 | COc1ccc(C(=O)NC(CC(=O)c2ccc3oc4ccccc4c3c2)C(=O)O)cc1 (stereo not shown) [Example 46, 4-Dibenzofuran-2-yl-2-(4-methoxy-benzoylamino)-4-oxo-butyric acid] |  | 140 nM | 11 µM | 1000 nM |  | 
13 | COc1ccc(C(=O)NC(CC(=O)c2ccc3oc4ccccc4c3c2)C(=O)O)cc1OC (stereo not shown) [Example 47, 4-Dibenzofuran-2-yl-2-(3,4-dimethoxy-benzoylamino)-4-oxo-butyric acid] |  | 130 nM | 8.8 µM | 870 nM |  | 
14 | O=C(CC(NC(=O)c1ccc(C(F)(F)F)cc1)C(=O)O)c1ccc2oc3ccccc3c2c1 (stereo not shown) [Example 48, 4-Dibenzofuran-2-yl-4-oxo-2-(4-trifluoromethyl-benzoylamino)-butyric acid] |  | 320 nM | 20 µM | 1500 nM |  | 
15 | O=C(CC(NC(=O)C1CCCC1)C(=O)O)c1ccc2oc3ccccc3c2c1 (stereo not shown) [Example 49, 2-(Cyclopentanecarbonyl-amino)-4-dibenzofuran-2-yl-4-oxo-butyric acid] |  | 80 nM | 4.4 µM | 350 nM |  | 
16 | O=C(CC(NC(=O)C1CCCCC1)C(=O)O)c1ccc2oc3ccccc3c2c1 (stereo not shown) [Example 50, 2-(Cyclohexanecarbonyl-amino)-4-dibenzofuran-2-yl-4-oxo-butyric acid] |  | 150 nM | 9.1 µM | 700 nM |  | 
17 | O=C(CC(NC(=O)c1cccs1)C(=O)O)c1ccc2oc3ccccc3c2c1 (stereo not shown) [Example 51, 4-Dibenzofuran-2-yl-4-oxo-2-[(thiophene-2-carbonyl)-amino]-butyric acid] |  | 160 nM | 16 µM | 1300 nM |  | 
18 | O=C(Cc1cccs1)NC(CC(=O)c1ccc2oc3ccccc3c2c1)C(=O)O (stereo not shown) [Example 52, 4-Dibenzofuran-2-yl-4-oxo-2-(2-thiophen-2-yl-acetylamino)-butyric acid] |  | 2500 nM | 48 µM | 7700 nM |  | 
19 | O=C(CC(NC(=O)c1ccc2c(c1)OCO2)C(=O)O)c1ccc2oc3ccccc3c2c1 (stereo not shown) [Example 53, 2-[(Benzo[1,3)dioxole-5-carbonyl)-amino]-4-dibenzofuran-2-yl-4-oxo-butyric acid] |  | 130 nM | 9.2 µM | 1000 nM |  | 
20 | CCC(C(=O)NC(CC(=O)c1ccc2oc3ccccc3c2c1)C(=O)O)c1ccccc1 (stereo not shown) [Example 54, 4-Dibenzofuran-2-yl-4-oxo-2-(2-phenylbutyrylamino)-butyric acid] |  | 60 nM | 1.5 µM | 250 nM |  | 
21 | Cc1nn(-c2ccccc2)nc1C(=O)NC(CC(=O)c1ccc2oc3ccccc3c2c1)C(=O)O (stereo not shown) [Example 55, 4-Dibenzofuran-2-yl-2-[(5-methyl-2-phenyl-2H-[1,2,3]triazole-4-carbonyl)-amino]-4-oxo-butyric acid] |  | 1800 nM | 70 µM | 14000 nM |  | 

Reference: patent publication US6020366A, “Butyric acid matrix metalloproteinase inhibitors” (priority 1998, dated 2000)
